# Source: patent US20090105260A1, “Molecules to Enhance Percutaneous Delivery and Methods for Discovery Therefor” (priority 2005, published 2009)
# Test system: porcine skin (ER); EpiDerm™ normal human derived epidermal keratinocytes (IP)
# Assay: ER/IP: skin conductivity enhancement ratio (INSIGHT apparatus) divided by irritation potential (EpiDerm MTT viability)
# Design: species or system Yorkshire pigs; human
# Conditions: EpiDerm and INSIGHT apparatus, procedures of Examples 1 and 2; FIG. 32 left-hand panel
# Description: Formulations containing 1.5% (wt/vol) of each CPE were prepared in a 1:1 EtOH:PBS (ethanol:phosphate buffered saline) solvent.
# Irritation potential of formulations was estimated using EpiDerm™ (MatTek Corporation, Ashland, Mass. www.mattek.com), a cell culture of normal human derived epidermal keratinocytes. EpiDerm™ cultures were stored and handled according to the standard protocol MTT-ET-50 supplied by MatTek Corporation. To study the effect of the test formulations on cell viability, cell cultures were exposed to 10 μl of the test formulation consisting of 1.5% (wt/vol) of each CPE in a 1:1 EtOH:PBS solvent for 4 hours. Each test formulation was analyzed in duplicate. The cell cultures were then handled as per the MTT-ET-50 protocol. The optical absorbance data from the extracted samples was then used to calculate the percentage cell viability as recommended in the protocol. Based on the cell viability, the irritation potential, IP, was defined as follows:
# 1% (wt/vol) Triton X-100 dissolved in water was used as the positive control and 1:1 PBS:EtOH was used as negative control. […]
# Enhancement ratios were measured using an apparatus (the INSIGHT apparatus) which consisted of a polycarbonate plate that served as the receptor plate and a Teflon® plate that served as the donor plate. […]
# Skin impedance in each well was recorded using two electrodes. […]
structure (smiles),measurement,value
"C=C(C)C(=O)OCCCCCCCCCCCCCCCCCC [SM, stearyl methacrylate]",FP/IPDescriptor (ER/IP determined experimentally) relative to oleic acid,about 3 times
